We go through three molecules from patent publication EP0093643A1 (priority 1982, dated 1983).

One test has as its system sécrétion gastrique. As to the kind of experiment: Pentagastrin-stimulated gastric hypersecretion in dogs with a Heidenhain pouch. The format is in vivo, chien. The settings on record: Canis lupus familiaris, po, voie orale, dog, pentagastrin infusion, dose reducing hourly acid output by 50 %, doses expressed as base, read-out: DE50 (the source's name). The method, then: L'activité inhibitrice de la sécrétion gastrique du composé de l'exemple 1 a été comparée à celle du racémique correspondant à l'aide du test d'hypersécrétion gastrique stimulée par la pentagastrine chez le chien porteur d'une poche de Heidenhein.
Trois chiens "mongrels", porteurs d'une poche de Heidenhein, à jeun depuis 18 heures, reçoivent pendant 4 heures, par perfusion veineuse, […]/kg/heure de pentagastrine sous un volume de 30 ml/heure. La sécrétion de la poche est recueillie dans un flacon qui est changé toutes les 15 minutes. Une heure et demie après le début de la perfusion, le produit à étudier est administré par voie orale dans une gélule n° 000. La dose efficace 50 % (DE 50) eet la dose de produit qui diminue de 50 % le débit acide horaire enregistré pendant la 3ème ou 4ème heure de l'expérimentation par rapport au débit acide horaire enregistré lors de la deuxième heure do la perfusion.
Les résultats obtenus sont rassemblés dans le tableau ci-après, où les dosas sont exprimées en produit sous forme de base : […]

The subject of test [1] is récepteurs muscariniques de l'acétylcholine. In kind it is binding, rat. The conditions noted are these: compared with quinupramine; from IC50 of 3H-QNB displacement.

Turning to `CN(C)S(=O)(=O)c1ccc2c(c1)N(C1CN3CCC1CC3)c1ccccc1S2` (racemic) [racémique correspondant, reference compound], in the test with sécrétion gastrique, the ED50 turned out to be 1 mg/kg.

With `c1ccc2c(c1)CCc1ccccc1N2[C@@H]1CN2CCC1CC2` [Exemple 2, [aza-1 bicyclo(2,2,2)octyl-3 (S)]-5 dihydro-10,11 5H-dibenz (b,f) azépine], the “activity relative to the corresponding racemate” value in test [1] is on record as “deux fois plus actif”.

On to `CN(C)S(=O)(=O)c1ccc2c(c1)N([C@@H]1CN3CCC1CC3)c1ccccc1S2` [Exemple 1, N,N-diméthyl [aza-1 bicyclo(2,2,2)octyl-3(S)] - 10 10 H-phénothiazinesulfonamide-2], for which the ED50 in the test with sécrétion gastrique is 0.7 mg/kg.
